The values below come from patent US9884862B2, “Pyridopyrimidinedione derivatives” (Novartis AG, priority 2014, dated 2018).

Like-named read-outs stand apart in the source and are kept apart here.

For assay [1], the system named is CFTR-Y122X. The experiment in a line: CFTR-Y122X assay (dual reporter isogenic Hek293 cell lines, Renilla luminescence readthrough). The format is cell-based. The conditions noted are these: for Emax / AC50 / Amax: nonsense mutation suppression, 24 h incubation, tested up to 100 μM; for Emax / Amax: 100% = 14 mM paromomycin; for Emax: read-out: Amax. An excerpt:
Activity of compounds of the present invention was examined in recombinant, dual reporter isogenic Hek293 cell lines (“CFTR-Y122X assay”). The engineered reporter constructs contained the 18 bp sequence stretch corresponding to a common Y122X PTC mutation in CFTR class I mutant patients (see Sermet-Gaudelus, BMC Medicine, 2007, 5(5)). Instead of a tyrosine (Y) in position 122 of the CFTR protein a TGA stop codon interrupts the open reading frame (Y122X) of the corresponding mRNA. This TGA stop codon triplet (followed by the pyrimidine base cytosine) is permissive to aminoglycoside mediated translational readthrough which served as positive control for high throughput screening. A corresponding TAA stop codon variant and a wildtype non mutated construct was used for confirmation and counter screening. The CFTR sequence was sandwiched between an eGFP reporter, and a triple myc tag sequence fused to a full length Renilla reporter. All sequences, including an intron containing one positioned pre-eGFP (b-globin intron) were cloned in frame. The corresponding expression constructs were stably expressed in the isogenic HEK-R4 cell host (Invitrogen Incorp.) and selected by blasticidin resistance. The isogenic integration of the construct minimizes gene dose effects and improves assay reproducibility. Stably integrated single cell derived clones were selected and characterized for aminoglycoside mediated readthrough. […] Readthrough of Y122X accumulates an intracellular localized fusion protein approximately 65.5 kDa in size as controlled by western blot analysis and immunofluorescence using an anti-renilla antibody. The eGFP reporter pre-PTC mutation serves as visual control for genetic stability of the screening clones and minimizes protein degradation of small fusion protein amounts. In the assay, compound concentration was 10 μM. In miniaturized 1536 well format 2000 cells were dispensed in 4 μl/well and incubated for 24 h at 37° C., 5% CO2. 40 nl compounds were placed on the cells with control wells containing 1 ul Paramomycin and 14.4 mM final concentration. Compounds were incubated for 24 h. Renilla Glo substrate (2.5 ul) was added and plates were centrifuged and processed for luminescence measurement using various readers. Activity calculation was done using the equation: A1(%)=100*(S−NC)/(AC−NC) where AC, NC and S correspond to active controls (injection of Stimulation buffer=100% stimulation), neutral controls (buffer injection which Iloprost EC10) and screening samples (S). NC corresponds to 0% activity whereas AC is 100% activity (14 mM paromomycin). False positive artifacts were removed in confirmation and validation screening using the same assay format followed by counterscreening using the respective wildtype construct (w/o PTC mutation) cell model. Compounds were tested up to 100 μM compound concentration.

The subject of assay [2] is alpha-L-Iduronidase W402X in Hurler patient derived fibroblast cells. The experiment in a line: Hurler patient derived fibroblast cell cultures, restored alpha-L-iduronidase activity (W402X readthrough). The format is cell-based, human. The conditions noted are these: 8 days incubation, highest concentration 20 uM; for Emax / AC50: Homo sapiens, Fibroblast, 192 h; for Emax / Amax: 14 mM paromomycin = 100% control; for Emax: read-out: Amax; for AC50: 8 point dilutions. From the text:
Activity of compounds of the present invention was examined in patient derived fibroblast cells. The genotyped cells were derived from the Coriell Institute (# GM00798) and contain an in frame homozygous TGG to TAG change at nucleotide 1293 of exon 9 which results in a W402X mutation. The W402X mutation is one of the most common Hurler syndromes causing loss of function mutation. Between 60-70% of genotyped patients contain either the Q70X and/or the W402X in mutation and are classified as severe MPSI patients. This TAG stop codon triplet is permissive to aminoglycoside mediated translational readthrough which served as activity control for compound testing. Readthrough of W402X restores alpha-L-Iduronidase activity which results in removal of lysosomal accumulated Glycosaminoglycan's. Iduronidase expression could neither be detected by Taqman PCR© nor by enzyme activity or ELISA methods without compound stimulation. Compounds were tested in concentration response mode. Therefore 5000 patient cells/40 ul/well in 384 well plates were used. Compound dilutions were derived from freshly prepared 10 mM compound stock solutions. Highest concentration was 20 uM and subsequently diluted 1: 3.16 (8 point dilutions, n=4). Final DMSO concentration was below 0.5% and tested to be without effect on cell viability, growth and readthrough. Cells were incubated for 8 days with one cell media and compound exchange at day 3. Thereafter cell media was removed and cells were lysed (0.4 M Sodiumformate, 0.1% NaN3, 0.9% NaCl, 0.2% Triton, pH 3.5). Restored alpha-L-iduronidase activity in cell lysates was measured with the fluorescent 4-MU iduronide substrate (5 ul of 0.4 mM 4 Methylumbelliferyl alpha-L-iduronide/well) after 48 h incubation. Paromomycin was used as reference control (14 mM=100% control).

Consider `CCSc1nc2c(c(=O)n1-c1ccccc1)C(=O)C1CCCC1N2` (centres unmarked) [2-(ethylthio)-3-phenyl-5a,6,7,8,8a,9-hexahydro-3H-cyclopenta[5,6]pyrido[2,3-d]pyrimidine-4,5-dione], for which, in assay [1] (at the above dose ranges (up to 100 μM)), the “suppression relative to paromomycin reference activity” value is “less than 5%”.
Consider `CC(C)c1nc2c(c(=O)c3sccc3n2C)c(=O)n1-c1ccccc1` [Example 1.1, 2-isopropyl-9-methyl-3-phenylthieno[2′,3′:5,6]pyrido[2,3-d]pyrimidine-4,5(3H,9H)-dione], for which, in assay [2], the Emax is 25% and the activity was half-maximal at 12 µM (AC50). Moreover, in assay [1] (Homo sapiens, HEK293), the Emax worked out at 247% and the activity was half-maximal at 2.2 µM (AC50).
As to `Cc1cc2c(=O)c3c(=O)n(-c4ccccc4)c(C(C)C)nc3n(C)c2s1` [Example 1.2, 2-isopropyl-7,9-dimethyl-3-phenylthieno[3′,2′:5,6]pyrido[2,3-d]pyrimidine-4,5(3H,9H)-dione], in assay [2], the Amax stood at 59% and the AC50 (as a rule, the concentration at which the activity in the assay is half-maximal) worked out at 17 µM. Also, in assay [1], the Amax is on record as 249% and half-maximal activity (AC50) was put at 13 µM.
With `Cc1cc2c(=O)c3c(=O)n(-c4ccccc4)c(C4CCC4)nc3[nH]c2s1` [Example 2.1, 2-cyclobutyl-7-methyl-3-phenylthieno[3′,2′:5,6]pyrido[2,3-d]pyrimidine-4,5(3H,9H)-dione], in assay [2], the Emax stood at 42% and the activity was half-maximal at 12 µM (AC50). In addition, in assay [1] (Homo sapiens, HEK293, 24 h), the Emax stood at 211% and the AC50 stood at 12 µM.
As for `Cc1cc2c(=O)c3c(=O)n(-c4ccccc4)c(C4CCC4)nc3n(CCN)c2s1` [Example 2.2, 9-(2-aminoethyl)-2-cyclobutyl-7-methyl-3-phenylthieno[3′,2′:5,6]pyrido[2,3-d]pyrimidine-4,5(3H,9H)-dione], the Emax came to 162% in assay [2] and 343% in assay [1] (Homo sapiens, HEK293, 24 h). For the same compound, the AC50 worked out at 6.9 µM in assay [2] and 4.3 µM in assay [1] (Homo sapiens, HEK293, 24 h).
Regarding `Cc1cc2c(s1)c(=O)c1c(=O)n(-c3ccccc3)c(C(C)C)nc1n2C` [Example 2.3, 2-isopropyl-7,9-dimethyl-3-phenylthieno[2′,3′:5,6]pyrido[2,3-d]pyrimidine-4,5(3H,9H)-dione], the Emax in assay [2] stood at 39%; in assay [1] (Homo sapiens, HEK293, 24 h) it was 169%. The activity in assay [1] (Homo sapiens, HEK293, 24 h) was half-maximal at 14 µM (AC50).
With `Cc1cc2c(=O)c3c(=O)n(-c4ccccc4)c(C(C)C)nc3n(C)c2s1` [Example 2.4, 2-isopropyl-7,9-dimethyl-3-phenylthieno[3′,2′:5,6]pyrido[2,3-d]pyrimidine-4,5(3H,9H)-dione], the Amax was 13% in assay [2] and 299% in assay [1]. Further, the AC50 in assay [1] (Homo sapiens, HEK293, 24 h) was 11 µM.
Consider `CC(C)c1nc2[nH]c3cscc3c(=O)c2c(=O)n1-c1ccccc1` [Example 2.5, 2-isopropyl-3-phenylthieno[3′,4′:5,6]pyrido[2,3-d]pyrimidine-4,5(3H,9H)-dione], for which, in assay [2], the Emax stood at 16% and the AC50 came out at 1.1 µM. Besides, in assay [1] (Homo sapiens, HEK293, 24 h), the Emax came to 113% and half-maximal activity (AC50) was put at 23 µM.
`CC(C)c1nc2[nH]c3sccc3c(=O)c2c(=O)n1-c1ccccc1` [Example 2.6, 2-isopropyl-3-phenylthieno[3′,2′:5,6]pyrido[2,3-d]pyrimidine-4,5(3H,9H)-dione]: the Emax in assay [2] was determined as 6%. For the same compound, in assay [1] (Homo sapiens, HEK293, 24 h), the Emax came out at 97% and the AC50 came to 16 µM.
For the compound `CC(C)c1nc2[nH]c3ccsc3c(=O)c2c(=O)n1-c1ccccc1` [Example 2.7, 2-isopropyl-3-phenylthieno[2′,3′:5,6]pyrido[2,3-d]pyrimidine-4,5(3H,9H)-dione], in assay [2], the Emax was 51% and the AC50 amounted to 10 µM. Further, in assay [1] (Homo sapiens, HEK293, 24 h), the Emax amounted to 332% and the concentration at half-maximal activity (AC50) was determined as 6.9 µM.
Consider `Cc1cc2[nH]c3nc(C(C)C)n(-c4ccccc4)c(=O)c3c(=O)c2s1` [Example 2.8, 2-isopropyl-7-methyl-3-phenylthieno[2′,3′:5,6]pyrido[2,3-d]pyrimidine-4,5(3H,9H)-dione], for which, in assay [2], the Emax stood at 65% and half-maximal activity (AC50) was put at 10 µM. Besides, in assay [1] (Homo sapiens, HEK293, 24 h), the Emax came to 225% and the AC50 was found to be 7.9 µM.
As to `Cc1cc2c(=O)c3c(=O)n(-c4ccccc4)c(C4CCC4)nc3n(C)c2s1` [Example 2.9, 2-cyclobutyl-7,9-dimethyl-3-phenylthieno[3′,2′:5,6]pyrido[2,3-d]pyrimidine-4,5(3H,9H)-dione], in assay [2], the Emax is 96% and the AC50 turned out to be 3.7 µM. In assay [1] (Homo sapiens, HEK293, 24 h), the Emax was 207% and the activity was half-maximal at 2.2 µM (AC50).
As for `Cn1c2nc(C3CCC3)n(-c3ccccc3)c(=O)c2c(=O)c2ccsc21` [Example 2.10, 2-cyclobutyl-9-methyl-3-phenylthieno[3′,2′:5,6]pyrido[2,3-d]pyrimidine-4,5(3H,9H)-dione], the Emax amounted to 167% in assay [2] and 393% in assay [1] (Homo sapiens, HEK293, 24 h). For the same compound, the AC50 in assay [2] came out at 5.5 µM; in assay [1] (Homo sapiens, HEK293, 24 h), 2 µM.
`Cn1c2ccsc2c(=O)c2c(=O)n(-c3ccccc3)c(C3CCC3)nc21` [Example 2.11, 2-cyclobutyl-9-methyl-3-phenylthieno[2′,3′:5,6]pyrido[2,3-d]pyrimidine-4,5(3H,9H)-dione]: in assay [2], the Emax is 152% and half-maximal activity (AC50) was put at 4.5 µM. In assay [1] (Homo sapiens, HEK293, 24 h), the Emax turned out to be 157% and the AC50 turned out to be 2 µM.
As for `Cc1cc2c(s1)c(=O)c1c(=O)n(-c3ccccc3)c(C3CCC3)nc1n2C` [Example 2.12, 2-cyclobutyl-7,9-dimethyl-3-phenylthieno[2′,3′:5,6]pyrido[2,3-d]pyrimidine-4,5(3H,9H)-dione], the Emax in assay [2] came to 138%; in assay [1] (Homo sapiens, HEK293, 24 h), 133%. The AC50 in assay [2] is 9 µM; in assay [1] (Homo sapiens, HEK293, 24 h), 3 µM.
On the same counts, the results for `CCc1cc2c(=O)c3c(=O)n(-c4ccccc4)c(C4CCC4)nc3n(C)c2s1` [Example 2.13, 2-cyclobutyl-7-ethyl-9-methyl-3-phenylthieno[3′,2′:5,6]pyrido[2,3-d]pyrimidine-4,5(3H,9H)-dione] are 66%, 118%, 16 µM and 6.1 µM.
Turning to `Cc1csc2c1c(=O)c1c(=O)n(-c3ccccc3)c(C3CCC3)nc1n2C` [Example 2.14, 2-cyclobutyl-6,9-dimethyl-3-phenylthieno[3′,2′:5,6]pyrido[2,3-d]pyrimidine-4,5(3H,9H)-dione], the Emax was 10% in assay [2] and 114% in assay [1] (Homo sapiens, HEK293, 24 h). The AC50 in assay [1] (Homo sapiens, HEK293, 24 h) was found to be 13 µM.
As to `NC[C@@H]1O[C@H](O[C@H]2[C@@H](O)[C@H](O[C@@H]3[C@@H](O)[C@H](N)C[C@H](N)[C@H]3O[C@H]3O[C@H](CO)[C@@H](O)[C@H](O)[C@H]3N)O[C@@H]2CO)[C@H](N)[C@@H](O)[C@@H]1O` [paromomycin, reference compound], the EC50 – broadly, the midpoint of the concentration-response curve – in assay [1] (Homo sapiens, HEK293, clone pursued for HTS assay development, read-out: EC50 (readthrough response of selected clone)) worked out at 1500 µM.
